Test results taken from patent US6303797A, “Sesterterpene derivatives exhibiting antifungal activities” (Banyu Pharmaceutical Co., Ltd., priority 1998, dated 2001).
Values after ≈ are worked out from the molar mass of the structure shown.

Test system: Trichosporon cutaneum IFO 1189
Experiment: Antifungal activity, minimum growth inhibition concentration (MIC), agar plate dilution method
Type: cell-based
Conditions: Cutaneotrichosporon cutaneum, IFO1189, 48 h; agar plate dilution method, Trichosporon cutaneum IFO 1189, culture at 37° C. for 2 days, yeast-nitrogen base with 1% glucose

MIC	Structure (SMILES)
6.25 µg/mL (≈ 12.4 µM)	C=C1C2CC3C(C(C)C)C(OC(=O)CC(C)C)CC3(C)CC2C(C)=CCC2C(C)OC(=O)C(O)C12O (stereo not shown) [Compound 9, 1,13a-dihydroxy-11-isopropyl-4,7,8a-trimethyl-13-methylene-2-oxo-1,2,4,4a,5,7a,8,8a,9,10,11,11a,12,12a,13,13a-hexadecahydroindeno[5',6':4,5]cycloocta[1,2-c]pyran-10-yl 3-methylbutanoate]
12.5 µg/mL (≈ 23.5 µM)	C=C1C2CC3C(C(C)C)C(OC(=O)C(O)CCCC)CC3(C)CC2C(C)=CCC2C(C)OC(=O)C(O)C12O (stereo not shown) [Compound 14, 1,13a-dihydroxy-11-isopropyl-4,7,8a-trimethyl-13-methylene-2-oxo-1,2,4,4a,5,7a,8,8a,9,10,11,11a,12,12a,13,13a-hexadecahydroindeno[5',6':4,5]cycloocta[1,2-c]pyran-10-yl 2-hydroxyhexanoate]
3.13 µg/mL (≈ 5.61 µM)	C=C1C2CC3C(C(C)C)C(OC(=O)c4ccc(Cl)nc4)CC3(C)CC2C(C)=CCC2C(C)OC(=O)C(O)C12O (stereo not shown) [Compound 26, 1,13a-dihydroxy-11-isopropyl-4,7,8a-trimethyl-13-methylene-2-oxo-1,2,4,4a,5,7a,8,8a,9,10,11,11a,12,12a,13,13a-hexadecahydroindeno[5',6':4,5]cycloocta[1,2-c]pyran-10-yl 6-chloronicotinate]
12.5 µg/mL (≈ 21.4 µM)	C=C1C2CC3C(C(C)C)C(OS(=O)(=O)/C=C/c4ccccc4)CC3(C)CC2C(C)=CCC2C(C)OC(=O)C(O)C12O (stereo not shown) [Compound 31, 1,13a-dihydroxy-11-isopropyl-4,7,8a-trimethyl-13-methylene-2-oxo-1,2,4,4a,5,7a,8,8a,9,10,11,11a,12,12a,13,13a-hexadecahydroindeno[5',6':4,5]cycloocta[1,2-c]pyran-10-yl (E)-2-phenyl-1-ethene-1sulfonate]
6.25 µg/mL	C=C1C2CC3C(C(C)C)C(OS(=O)(=O)CCCC)CC3(C)CC2C(C)=CCC2C(C)OC(=O)C(O)C12O (stereo not shown) [Compound 32, 1,13a-dihydroxy-11-isopropyl-4,7,8a-trimethyl-13-methylene-2-oxo-1,2,4,4a,5,7a,8,8a,9,10,11,11a,12,12a,13,13a-hexadecahydroindeno[5',6':4,5]cycloocta[1,2-c]pyran-10-yl 1butanesulfonate]
3.13 µg/mL (≈ 5.63 µM)	C=C1C2CC3C(C(C)C)C(OC(=O)Nc4ccc(F)cc4)CC3(C)CC2C(C)=CCC2C(C)OC(=O)C(O)C12O (stereo not shown) [Compound 39, 1,13a-dihydroxy-11-isopropyl-4,7,8a-trimethyl-13-methylene-2-oxo-1,2,4,4a,5,7a,8,8a,9,10,11,11a,12,12a,13,13a-hexadecahydroindeno[5',6':4,5]cycloocta[1,2-c]pyran-10-yl N-(4-fluorophenyl)carbamate]
12.5 µg/mL (≈ 21.8 µM)	C=C1C2CC3C(C(C)C)C(NC(=O)CC(C)(O)CC(C)CC)CC3(C)CC2C(C)=CCC2C(C)OC(=O)C(O)C12O (stereo not shown) [Compound 54, N'-(1,13a-dihydroxy-11-isopropyl-4,7,8a-trimethyl-13-methylene-2-oxo-1,2,4,4a,5,7a,8,8a,9,10,11,11a,12,12a,13,13a-hexadecahydroindeno[5',6': 4,5]cycloocta [1,2-c]pyran-10-yl)-3-hydroxy-3,5-dimethylheptanamide]
6.25 µg/mL (≈ 11 µM)	C=C1C2CC3C(C(C)C)C(NC(=O)Cc4ccc(Cl)cc4)CC3(C)CC2C(C)=CCC2C(C)OC(=O)C(O)C12O (stereo not shown) [Compound 65, N'-(1,13a-dihydroxy-11-isopropyl-4,7,8a-trimethyl-13-methylene-2-oxo-1,2,4,4a,5,7a,8,8a,9,10,11,11a,12,12a,13,13a-hexadecahydroindeno[5',6': 4,5]cycloocta[1,2-c]pyran-10-yl)-4-chlorophenylacetamide]
≥ 100 µg/mL	C[C@@H]1[C@H](O)[C@@H](C)/C=C/C=C/C=C/C=C/C=C/C=C/C=C/[C@H](O[C@@H]2O[C@H](C)[C@@H](O)[C@H](N)[C@@H]2O)C[C@@H]2O[C@](O)(C[C@@H](O)C[C@@H](O)[C@H](O)CC[C@@H](O)C[C@@H](O)CC(=O)O[C@H]1C)C[C@H](O)[C@H]2C(=O)O [amphotericin B, reference compound]

More lines, now with the values behind:

Structure (SMILES)	MIC
C=C1C2CC3C(C(C)C)C(OC(=O)CCC)CC3(C)CC2C(C)=CCC2C(C)OC(=O)C(O)C12O (stereo not shown) [Compound 5, 1,13a-dihydroxy-11-isopropyl-4,7,8a-trimethyl-13-methylene-2-oxo-1,2,4,4a,5,7a,8,8a,9,10,11,11a,12,12a,13,13a-hexadecahydroindeno[5',6':4,5]cycloocta[1,2-c]pyran-10-yl butanoate]	6.25 µg/mL (≈ 12.8 µM)
C=C1C2CC3C(C(C)C)C(OC(=O)c4ccc(F)cc4)CC3(C)CC2C(C)=CCC2C(C)OC(=O)C(O)C12O (stereo not shown) [Compound 23, 1,13a-dihydroxy-11-isopropyl-4,7,8a-trimethyl-13-methylene-2-oxo-1,2,4,4a,5,7a,8,8a,9,10,11,11a,12,12a,13,13a-hexadecahydroindeno[5',6':4,5]cycloocta[1,2-c]pyran-10-yl 4-fluorobenzoate]	12.5 µg/mL (≈ 23.1 µM)
C=C1C2CC3C(C(C)C)C(OC(=O)NCC)CC3(C)CC2C(C)=CCC2C(C)OC(=O)C(O)C12O (stereo not shown) [Compound 33, 1,13a-dihydroxy-11-isopropyl-4,7,8a-trimethyl-13-methylene-2-oxo-1,2,4,4a,5,7a,8,8a,9,10,11,11a,12,12a,13,13a-hexadecahydroindeno[5',6':4,5]cycloocta[1,2-c]pyran-10-yl N-ethylcarbamate]	6.25 µg/mL (≈ 12.8 µM)
C=C1C2CC3C(C(C)C)C(OC(=O)NCc4ccccc4)CC3(C)CC2C(C)=CCC2C(C)OC(=O)C(O)C12O (stereo not shown) [Compound 40, 1,13a-dihydroxy-11-isopropyl-4,7,8a-trimethyl-13-methylene-2-oxo-1,2,4,4a,5,7a,8,8a,9,10,11,11a,12,12a,13,13a-hexadecahydroindeno[5',6':4,5]cycloocta[1,2-c]pyran-10-yl N-benzylcarbamate]	6.25 µg/mL (≈ 11.3 µM)
C=C1C2CC3C(C(C)C)C(OC(=O)NC4CCCCO4)CC3(C)CC2C(C)=CCC2C(C)OC(=O)C(O)C12O (stereo not shown) [Compound 42, 1,13a-dihydroxy-11-isopropyl-4,7,8a-trimethyl-13-methylene-2-oxo-1,2,4,4a,5,7a,8,8a,9,10,11,11a,12,12a,13,13a-hexadecahydroindeno[5',6':4,5]cycloocta[1,2-c]pyran-10-yl N-tetrahydro-2H-pyran-2-ylcarbamate]	12.5 µg/mL (≈ 22.9 µM)
C=C1C2CC3C(C(C)C)C(OC(=O)Nc4ccccc4)CC3(C)CC2C(C)=CCC2C(C)OC(=O)C(O)C12O (stereo not shown) [Compound 43, 1,13a-dihydroxy-11-isopropyl-4,7,8a-trimethyl-13-methylene-2-oxo-1,2,4,4a,5,7a,8,8a,9,11a,12,12a,13,13a-hexadecahydroindeno[5',6':4,5]cycloocta [1,2-c]pyran-10-yl N-phenylcarbamate]	3.13 µg/mL (≈ 5.82 µM)
C=C1C2CC3C(C(C)C)C(OC(=O)NC4CCCCC4)CC3(C)CC2C(C)=CCC2C(C)OC(=O)C(O)C12O (stereo not shown) [Compound 46, 1,13a-dihydroxy-11-isopropyl-4,7,8a-trimethyl-13-methylene-2-oxo-1,2,4,4a,5,7a,8,8a,9,10,11,11a,12,12a,13,13a-hexadecahydroindeno[5',6':4,5]cycloocta[1,2-c]pyran-10-yl N-cyclohexylcarbamate]	12.5 µg/mL (≈ 23 µM)
C=C1C2CC3C(C(C)C)C(NC(=O)Cc4csc5ccccc45)CC3(C)CC2C(C)=CCC2C(C)OC(=O)C(O)C12O (stereo not shown) [Compound 64, N'-(1,13a-dihydroxy-11-isopropyl-4,7,8a-trimethyl-13-methylene-2-oxo-1,2,4,4a,5,7a,8,8a,9,10,11,11a,12,12a,13,13a-hexadecahydroindeno[5',6': 4,5]cycloocta[1,2-c]pyran-10-yl)-3-benzo[b]thienylacetamide]	6.25 µg/mL (≈ 10.6 µM)

Same assay, conditions: agar plate dilution method, Trichosporon cutaneum IFO 1189, culture at 37° C. for 2 days, yeast-nitrogen base with 1% glucose

Structure (SMILES)	MIC (minimum growth inhibition concentration)
C=C1C2CC3C(C(C)C)C(OC(=O)CC(C)(O)CC(C)CC)CC3(C)CC2C(C)=CCC2C(C)OC(=O)C(O)C12O (stereo not shown) [BE-49385 A, reference compound]	≥ 100 µg/mL

Same assay, conditions: fungi against which BE-49385 A does not show an antifungal activity

Structure (SMILES)	antifungal activity (in words)
C=C1C2CC3C(C(C)C)C(OC(=O)CC(C)(O)CC(C)CC)CC3(C)CC2C(C)=CCC2C(C)OC(=O)C(O)C12O (stereo not shown) [BE-49385 A, reference compound]	does not show an antifungal activity
